#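 Briefly, cells in 96-well plates were exposed to five compound concentrations for 48 h, and endpoints were estimated by linear interpolation. GI50 is the concentration that inhibits growth by half.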 Activity calls are given as the source filed them. No stated cut-off is given here; in the data, active = GI50 up to about 1.1 µM and inactive = higher.
# How the values were obtained:
# Test in all cases: NCI anticancer screen, dose series, 48 h
# CAKI-1 = test system: CAKI-1
# COLO 205 = test system: COLO 205
# EKVX = test system: EKVX
# HOP-62 = test system: HOP-62
# HOP-92 = test system: HOP-92
# LOX IMVI = test system: LOX IMVI
# MDA-MB-231 = test system: MDA-MB-231
# MDA-MB-435 = test system: MDA-MB-435
# NCI-H23 = test system: NCI-H23
# NCI-H522 = test system: NCI-H522
# NCI/ADR-RES = test system: NCI/ADR-RES
# PC-3 = test system: PC-3
# RXF 393 = test system: RXF 393
# SF-268 = test system: SF-268
# SF-539 = test system: SF-539
# SNB-75 = test system: SNB-75
# SW-620 = test system: SW-620
# UACC-62 = test system: UACC-62
# UO-31 = test system: UO-31
# A498 = test system: A498
Compound,GI50 (CAKI-1),GI50 (COLO 205),GI50 (EKVX),GI50 (HOP-62),GI50 (HOP-92),GI50 (LOX IMVI),GI50 (MDA-MB-231),GI50 (MDA-MB-435),GI50 (NCI-H23),GI50 (NCI-H522),GI50 (NCI/ADR-RES),GI50 (PC-3),GI50 (RXF 393),GI50 (SF-268),GI50 (SF-539),GI50 (SNB-75),GI50 (SW-620),GI50 (UACC-62),GI50 (UO-31),GI50 (A498)
Cc1nc2cccc(F)c2c(=O)n1-c1nnc(C2CC2)s1,> 10 µM (inactive),> 10 µM (inactive),> 10 µM (inactive),> 10 µM (inactive),> 10 µM (inactive),> 10 µM (inactive),> 10 µM (inactive),> 10 µM (inactive),> 10 µM (inactive),> 10 µM (inactive),> 10 µM (inactive),> 10 µM (inactive),> 10 µM (inactive),> 10 µM (inactive),> 10 µM (inactive),> 10 µM (inactive),> 10 µM (inactive),> 10 µM (inactive),> 10 µM (inactive),–
COc1ccc(-n2c(CCC(=O)O)nc3c2C(=O)c2ccccc2C3=O)cc1,> 100 µM (inactive),> 100 µM (inactive),> 100 µM (inactive),> 100 µM (inactive),–,28.3 µM (inactive),> 100 µM (inactive),96.4 µM (inactive),> 100 µM (inactive),34.3 µM (inactive),> 100 µM (inactive),> 100 µM (inactive),> 100 µM (inactive),> 100 µM (inactive),> 100 µM (inactive),> 100 µM (inactive),> 100 µM (inactive),> 100 µM (inactive),> 100 µM (inactive),> 100 µM (inactive)
CC1=C(C#N)C2C(=C(N)Oc3ccccc32)C(N)=N1 (configuration not stated),19.1 µM (inactive),26.1 µM (inactive),25.4 µM (inactive),35.6 µM (inactive),–,20.1 µM (inactive),14 µM (inactive),27.7 µM (inactive),> 10 µM (inactive),15.4 µM (inactive),19.3 µM (inactive),33.3 µM (inactive),22.7 µM (inactive),24.5 µM (inactive),30.1 µM (inactive),18.7 µM (inactive),32.9 µM (inactive),20.7 µM (inactive),17.4 µM (inactive),24 µM (inactive)
O=C(O)c1cc(/N=N/c2ccc([As](=O)(O)O)cc2)ccc1O,> 100 µM (inactive),> 100 µM (inactive),> 100 µM (inactive),> 100 µM (inactive),–,> 100 µM (inactive),> 100 µM (inactive),> 100 µM (inactive),> 100 µM (inactive),> 100 µM (inactive),> 100 µM (inactive),> 100 µM (inactive),> 100 µM (inactive),> 100 µM (inactive),> 100 µM (inactive),> 100 µM (inactive),> 100 µM (inactive),> 100 µM (inactive),> 100 µM (inactive),> 100 µM (inactive)
CN(C)c1nncc2[nH]cnc12,> 100 µM (inactive),> 100 µM (inactive),> 100 µM (inactive),> 100 µM (inactive),–,–,> 100 µM (inactive),> 100 µM (inactive),> 100 µM (inactive),–,> 100 µM (inactive),> 100 µM (inactive),> 100 µM (inactive),> 100 µM (inactive),> 100 µM (inactive),> 100 µM (inactive),> 100 µM (inactive),> 100 µM (inactive),> 100 µM (inactive),> 100 µM (inactive)
CC(C)=CC[C@]12CCN[C@H]1N(S(=O)(=O)c1ccccc1)c1ccccc12,20.1 µM (inactive),15.1 µM (inactive),8.17 µM (inactive),15.3 µM (inactive),12.2 µM (inactive),15.9 µM (inactive),19 µM (inactive),16.3 µM (inactive),> 100 µM (inactive),13.9 µM (inactive),14.8 µM (inactive),13.5 µM (inactive),13.5 µM (inactive),14.8 µM (inactive),20.3 µM (inactive),17.1 µM (inactive),18.4 µM (inactive),13.2 µM (inactive),13.8 µM (inactive),–
O=[N+]([O-])c1ccc(/C=C/c2cc(-c3ccccc3)nc3ccc4ccccc4c23)cc1,> 100 µM (inactive),> 100 µM (inactive),> 100 µM (inactive),> 100 µM (inactive),–,> 100 µM (inactive),> 100 µM (inactive),> 100 µM (inactive),> 100 µM (inactive),–,> 100 µM (inactive),> 100 µM (inactive),> 100 µM (inactive),> 100 µM (inactive),> 100 µM (inactive),16.9 µM (inactive),> 100 µM (inactive),> 100 µM (inactive),> 100 µM (inactive),> 100 µM (inactive)
Cc1sc2nc3n(sc4nc5sc(C)c(C)c5c(=O)n43)c(=O)c2c1C,66.1 µM (inactive),> 100 µM (inactive),30.3 µM (inactive),–,> 100 µM (inactive),> 100 µM (inactive),80.5 µM (inactive),> 100 µM (inactive),> 100 µM (inactive),16.4 µM (inactive),> 100 µM (inactive),> 100 µM (inactive),–,> 100 µM (inactive),> 100 µM (inactive),4.81 µM (inactive),45.9 µM (inactive),33.2 µM (inactive),> 100 µM (inactive),–
C[C@H](CCC(=O)O)[C@H]1CC[C@H]2[C@@H]3CC[C@@H]4C[C@H](O)CC[C@]4(C)[C@H]3C[C@H](O)[C@]12C [DEOXYCHOLIC ACID],69.5 µM (inactive),27.9 µM (inactive),31.4 µM (inactive),26.4 µM (inactive),–,40.8 µM (inactive),41.5 µM (inactive),42.2 µM (inactive),39.7 µM (inactive),28 µM (inactive),44.5 µM (inactive),33.6 µM (inactive),52.4 µM (inactive),40.1 µM (inactive),48 µM (inactive),37.1 µM (inactive),47.8 µM (inactive),37.5 µM (inactive),37.6 µM (inactive),41.2 µM (inactive)
C[N+]12C=CC=C1C(N1CCCC1)c1scc(-c3ccc(F)cc3)c12 (configuration not stated),> 100 µM (inactive),18.7 µM (inactive),92.3 µM (inactive),63.7 µM (inactive),–,40.8 µM (inactive),42.2 µM (inactive),30.6 µM (inactive),–,17.6 µM (inactive),> 100 µM (inactive),27.1 µM (inactive),24.5 µM (inactive),32.4 µM (inactive),–,20.4 µM (inactive),68.2 µM (inactive),35.4 µM (inactive),> 100 µM (inactive),43.3 µM (inactive)
C=C1C[C@H](O)[C@H](Br)C(C)(C)C12CCC(C)(Cl)C(Br)C2 (some centres not stated),5.09 µM (inactive),1.02 µM (active),0.286 µM (active),2.26 µM (inactive),1.5 µM (inactive),10 µM (inactive),2.72 µM (inactive),2.3 µM (inactive),0.445 µM (active),3.83 µM (inactive),4.58 µM (inactive),0.153 µM (active),1.95 µM (inactive),6.87 µM (inactive),15.6 µM (inactive),1.94 µM (inactive),4.99 µM (inactive),5.85 µM (inactive),7.93 µM (inactive),–

# From ChEMBL document CHEMBL1201862, “PubChem BioAssay data set” (2004)
